“Also recorded” adds a separate entry of the source.

One series concerns iBMDMs. In words: Cell viability assay (CCK-8), iBMDMs. Particulars: 3′3′-cGAMP 10 μg/ml, ALK inhibitor 10 μM, 16 hours. It counts as cell-based, mouse. As to the method: (§1) Cells were seeded into 96-well plates and incubated with the indicated treatments. Subsequently, 100 μl fresh medium was added to cells containing 10 μl Cell Counting Kit-8 (CCK-8) solutions (Dojindo Laboratories) and incubated for 1 h (37° C., 5% CO2). Absorbance at 450 nm was measured using a microplate reader (Tecan).

The next series concerns pPMs. In words: Cell viability assay (CCK-8), pPMs. It counts as cell-based, mouse. To be noted: 3′3′-cGAMP 10 μg/ml, ALK inhibitor 10 μM, 16 hours. The procedure: as §1
The next series relates to THP1 cells. Put plainly: Cell viability assay (CCK-8), THP1. In kind it is cell-based, human. Particulars: 3′3′-cGAMP 10 μg/ml, ALK inhibitor 10 μM, 16 hours. The procedure: as §1
The test system of series [1] is STING activation (IFNβ release) in iBMDMs. Put plainly: IFNβ release ELISA after STING ligand (or LPS) stimulation, iBMDMs. It counts as cell-based, mouse. To be noted: iBMDMs; 3′3′-cGAMP 10 μg/ml, 16 hours; compound 10 μM. An outline of the steps: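 IFNβ released into the medium was quantified by ELISA (mouse or human kit) after iBMDM stimulation with the canonical STING agonist 3′3′-cGAMP or with LPS.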
A general note: An ELISA detects its analyte on a solid surface through an enzyme-linked reagent.

Another series deals with RAW264.7 cells. In words: Cell viability assay (CCK-8), RAW264.7. In kind it is cell-based, mouse. Particulars: 3′3′-cGAMP 10 μg/ml, ALK inhibitor 10 μM, 16 hours. As to the method:
as §1

The test system of series [2] is STING activation (IFNβ release) in pPMs. In words: IFNβ release ELISA, primary peritoneal macrophages (pPMs). In kind it is cell-based, mouse. To be noted: mouse pPMs; 3′3′-cGAMP 10 μg/ml, 16 hours; compound 10 μM. The procedure:
Mouse pPMs were isolated from C57BL/6J mice as previously described (69). In brief, eight-week-old female or male C57BL/6J mice were injected with 3.0% thioglycollate medium (2 mL/mouse) into the peritoneum. Three days after injection, mice were sacrificed and injected with 3 mL of 0.05% EDTA-PBS into the peritoneum to harvest peritoneal macrophages. Collected cells were centrifuged at 1000 rpm for 5 min at 4° C., and the cell pellet was washed with PBS and centrifuged again. The cell pellet was then suspended in Dulbecco's Modified Eagle Medium supplemented with 10% FBS and 1× Penicillin-Streptomycin and cultured in a culture dish.
(§2) Macrophages or monocytes were treated with 3′3′-cGAMP (10 μg/ml, Invitrogen) for 16 hours in the absence or presence of one compound (10 μM) from the Target-selective Inhibitory Library (#L3500, Selleck Chemicals). Commercially available enzyme-linked immunosorbent assay (ELISA) kits were used to measure the concentrations of mouse IFNβ (Thermo Fisher Scientific) or human IFNβ (Thermo Fisher Scientific) in culture medium according to the manufacturer's instructions.

The subject of series [3] is STING activation (IFNβ release) in pPBMCs. In words: IFNβ release ELISA, primary peripheral blood mononuclear cells (pPBMCs). In kind it is cell-based. Particulars: human pPBMCs; 3′3′-cGAMP 10 μg/ml, 16 hours; compound 10 μM. As to the method: as §2
In series [4] the test system is STING signaling (TBK1, IRF3, p65, ALK, EGFR, AKT phosphorylation) in iBMDMs. Put plainly: Western blot of STING pathway protein phosphorylation, iBMDMs. In kind it is cell-based, mouse. Particulars: 16 hours, 10 μM; for STING ligand-induced phosphorylation of TBK1, IRF3, and p65: 3′3′-cGAMP or c-di-AMP 10 μg/ml; for 3′3′-cGAMP- or c-di-AMP-induced phosphorylation of ALK, EGFR, and AKT: ligand 10 μg/ml. As to the method:
(§3) For immunoblotting, cells were lysed in Cell Lysis Buffer (#9803, Cell Signaling Technology) with protease inhibitor cocktail (Promega), phosphatase inhibitor cocktail (Sigma), and 1 mM Na3VO4 (70). Cleared lysates were resolved by SDS-PAGE (#3450124, Bio-Rad) and then transferred onto PVDF membranes (#1704273, Bio-Rad). The membranes were blocked with Tris-buffered saline Tween 20 (TBST) containing 5% skim milk for 1 h at room temperature and then incubated with the indicated primary antibodies (1:1000-1:5000) overnight at 4° C. After being washed with TBST, the membranes were incubated with an HRP-linked anti-mouse IgG secondary antibody (#7076, Cell Signaling Technology) or HRP-linked anti-rabbit IgG secondary antibody (#7074, Cell Signaling Technology) for 1 h at room temperature. The membranes were washed three times in TBST and then visualized and analyzed with a ChemiDoc Touch Imaging System (#1708370, Bio-Rad). The intensities of bands were analyzed with Image Lab software.

The test system of series [5] is STING signaling (TBK1, IRF3, p65, ALK, EGFR, AKT phosphorylation) in THP1 cells. Put plainly: Western blot of STING pathway protein phosphorylation, THP1. It counts as cell-based, human. Particulars: 16 hours, 10 μM; for STING ligand-induced phosphorylation of TBK1, IRF3, and p65: 3′3′-cGAMP or c-di-AMP 10 μg/ml; for 3′3′-cGAMP- or c-di-AMP-induced phosphorylation of ALK, EGFR, and AKT: ligand 10 μg/ml. As to the method: as §3
(In western blotting, separated proteins are transferred to a membrane and probed.)

Series [6] relates to STING signaling (TBK1, IRF3, p65, ALK, EGFR, AKT phosphorylation) in RAW264.7 cells. In words: Western blot of STING pathway protein phosphorylation, RAW264.7. In kind it is cell-based, mouse. To be noted: 16 hours, 10 μM; for STING ligand-induced phosphorylation of TBK1, IRF3, and p65: 3′3′-cGAMP or c-di-AMP 10 μg/ml; for 3′3′-cGAMP- or c-di-AMP-induced phosphorylation of ALK, EGFR, and AKT: ligand 10 μg/ml. As to the method:
as §3

Series [7] addresses T1, interaction between ALK and EGFR (Homo sapiens, UniProt P00533+Q9UM73).
T1 construct: endogenous in cells; host or cells: THP1 cells
In words: IP analysis of the interaction between ALK and EGFR, THP1. In kind it is cell-based. To be noted: 3′3′-cGAMP or c-di-AMP 10 μg/ml, 16 hours, 10 μM. As to the method:
For immunoprecipitation, cells were lysed at 4° C. in ice-cold modified radioimmunoprecipitation lysis buffer (#9806, Cell Signaling Technology) and cell lysates were cleared by centrifugation (12,000 g, 10 min). Concentrations of proteins in the supernatant were determined by bicinchoninic acid assay. Prior to immunoprecipitation, samples containing equal amounts of proteins were pre-cleared with Protein A/G agarose/sepharose beads (#20423, Thermo Fisher Scientific Inc.) (4° C., 3 h) and subsequently incubated with various irrelevant IgG or anti-ALK (#ab190934, Abcam) or anti-EGFR antibodies (#2232S, Cell Signaling Technology) in the presence of Protein A/G agarose/sepharose beads overnight at 4° C. with gentle shaking. Following incubation, agarose/sepharose beads were washed extensively with PBS and proteins were eluted by boiling in 2× sodium dodecyl sulfate (SDS) sample buffer before SDS-PAGE electrophoresis.

The target in series [8] is T2, interaction between ALK and EGFR (Mus musculus, UniProt P97793+Q01279).
T2 construct: endogenous in cells; host or cells: iBMDMs
T2 sequence (P97793 19-1621): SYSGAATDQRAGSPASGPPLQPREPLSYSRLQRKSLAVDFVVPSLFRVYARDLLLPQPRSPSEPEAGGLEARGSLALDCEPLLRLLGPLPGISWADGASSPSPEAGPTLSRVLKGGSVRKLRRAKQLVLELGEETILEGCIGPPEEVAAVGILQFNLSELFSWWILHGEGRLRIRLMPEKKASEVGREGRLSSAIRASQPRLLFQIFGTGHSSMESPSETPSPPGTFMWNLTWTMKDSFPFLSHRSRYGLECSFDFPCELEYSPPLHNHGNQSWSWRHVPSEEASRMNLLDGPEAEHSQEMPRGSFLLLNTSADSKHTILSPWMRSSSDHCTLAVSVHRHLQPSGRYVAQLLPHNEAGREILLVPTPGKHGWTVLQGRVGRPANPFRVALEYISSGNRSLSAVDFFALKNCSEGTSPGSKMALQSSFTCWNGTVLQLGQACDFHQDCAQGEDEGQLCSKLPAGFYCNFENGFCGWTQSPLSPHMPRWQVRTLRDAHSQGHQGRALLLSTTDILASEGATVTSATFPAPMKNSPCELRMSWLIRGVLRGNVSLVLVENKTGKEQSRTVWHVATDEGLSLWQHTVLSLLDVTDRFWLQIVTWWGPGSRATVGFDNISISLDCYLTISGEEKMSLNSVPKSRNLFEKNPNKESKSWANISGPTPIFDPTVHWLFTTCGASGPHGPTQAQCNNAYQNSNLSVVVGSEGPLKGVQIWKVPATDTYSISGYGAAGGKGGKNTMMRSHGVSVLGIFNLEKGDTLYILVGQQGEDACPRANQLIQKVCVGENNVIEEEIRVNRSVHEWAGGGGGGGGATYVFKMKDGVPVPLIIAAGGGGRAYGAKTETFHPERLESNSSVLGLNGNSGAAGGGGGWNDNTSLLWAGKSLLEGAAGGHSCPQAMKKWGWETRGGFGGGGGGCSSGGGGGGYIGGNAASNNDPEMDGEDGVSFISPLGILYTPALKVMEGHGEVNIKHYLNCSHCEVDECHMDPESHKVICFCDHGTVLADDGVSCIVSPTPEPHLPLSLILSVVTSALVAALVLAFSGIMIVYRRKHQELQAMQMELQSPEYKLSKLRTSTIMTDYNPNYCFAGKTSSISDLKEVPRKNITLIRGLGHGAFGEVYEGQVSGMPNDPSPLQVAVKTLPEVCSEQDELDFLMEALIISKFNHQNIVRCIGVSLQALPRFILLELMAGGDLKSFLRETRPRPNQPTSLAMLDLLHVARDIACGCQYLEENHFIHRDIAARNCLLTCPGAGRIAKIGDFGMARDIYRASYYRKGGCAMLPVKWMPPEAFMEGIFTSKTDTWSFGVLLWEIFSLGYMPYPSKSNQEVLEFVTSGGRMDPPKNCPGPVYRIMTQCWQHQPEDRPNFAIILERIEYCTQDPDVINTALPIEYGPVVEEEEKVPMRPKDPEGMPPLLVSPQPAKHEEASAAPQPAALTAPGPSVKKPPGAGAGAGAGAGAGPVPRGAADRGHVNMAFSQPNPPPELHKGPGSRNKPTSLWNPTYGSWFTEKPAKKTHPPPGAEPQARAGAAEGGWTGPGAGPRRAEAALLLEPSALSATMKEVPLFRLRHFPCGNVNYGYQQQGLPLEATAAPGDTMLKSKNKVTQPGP
T2 sequence (Q01279 25-1210): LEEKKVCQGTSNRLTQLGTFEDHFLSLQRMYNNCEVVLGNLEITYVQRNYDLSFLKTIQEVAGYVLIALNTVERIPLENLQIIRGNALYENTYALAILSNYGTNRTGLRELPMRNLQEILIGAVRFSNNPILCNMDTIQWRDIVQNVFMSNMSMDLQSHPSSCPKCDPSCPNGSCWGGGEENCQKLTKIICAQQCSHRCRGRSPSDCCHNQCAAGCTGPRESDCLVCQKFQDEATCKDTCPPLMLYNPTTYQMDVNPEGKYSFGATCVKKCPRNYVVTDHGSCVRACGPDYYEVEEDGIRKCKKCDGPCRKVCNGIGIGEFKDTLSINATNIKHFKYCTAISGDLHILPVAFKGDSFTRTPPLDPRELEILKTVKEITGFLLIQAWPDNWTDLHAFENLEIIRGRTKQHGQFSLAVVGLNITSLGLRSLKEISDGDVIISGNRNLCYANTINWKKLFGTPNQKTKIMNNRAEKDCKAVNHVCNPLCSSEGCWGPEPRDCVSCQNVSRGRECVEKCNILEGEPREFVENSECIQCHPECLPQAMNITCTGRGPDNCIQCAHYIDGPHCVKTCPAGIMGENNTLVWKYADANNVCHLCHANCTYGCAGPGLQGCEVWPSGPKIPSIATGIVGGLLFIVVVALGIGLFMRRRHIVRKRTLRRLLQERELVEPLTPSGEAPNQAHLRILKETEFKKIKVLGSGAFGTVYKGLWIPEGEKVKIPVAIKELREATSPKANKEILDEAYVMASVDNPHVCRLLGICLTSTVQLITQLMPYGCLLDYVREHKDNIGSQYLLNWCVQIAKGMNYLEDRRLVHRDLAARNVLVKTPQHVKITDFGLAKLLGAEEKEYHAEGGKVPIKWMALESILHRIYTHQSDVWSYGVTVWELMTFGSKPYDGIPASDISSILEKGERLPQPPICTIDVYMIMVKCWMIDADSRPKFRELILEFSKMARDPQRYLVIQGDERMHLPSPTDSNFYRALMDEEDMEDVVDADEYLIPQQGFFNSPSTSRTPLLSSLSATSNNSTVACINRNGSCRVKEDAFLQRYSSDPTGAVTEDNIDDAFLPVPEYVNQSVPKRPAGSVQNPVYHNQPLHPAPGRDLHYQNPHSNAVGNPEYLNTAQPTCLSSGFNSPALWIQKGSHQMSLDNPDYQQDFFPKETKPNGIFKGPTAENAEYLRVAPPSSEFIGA
Put plainly: IP analysis of the interaction between ALK and EGFR, iBMDMs. In kind it is cell-based. Particulars: 3′3′-cGAMP or c-di-AMP 10 μg/ml, 16 hours, 10 μM. As to the method: Concentrations of proteins in the supernatant were determined by bicinchoninic acid assay. […] Following incubation, agarose/sepharose beads were washed extensively with PBS and proteins were eluted by boiling in 2× sodium dodecyl sulfate (SDS) sample buffer before SDS-PAGE electrophoresis.

As to `COc1cc(N2CCC(N3CCN(C)CC3)CC2)ccc1Nc1ncc(Cl)c(Nc2ccccc2P(C)(C)=O)n1` [AP26113], the cell viability result in the series with iBMDMs, in the series on pPMs, in the series with THP1 cells and in the series with RAW264.7 cells was “did not affect cell viability” each time. Besides, in [1], the “fold increase in IFN-β release” value is 0.19 fold.
Take `COc1cc(N2CCC(N)CC2)ccc1Nc1ncc(Cl)c(-c2c[nH]c3ccccc23)n1` [AZD3463]: the “3′3′-cGAMP-induced IFNβ release” value was “confirmed their inhibitory properties” in series [2], “confirmed their inhibitory properties” in [3] and “blocked; also recorded: diminished” in [1]. The cell viability result in the series on iBMDMs, in the series with pPMs, in the series on THP1 cells and in the series with RAW264.7 cells was “exhibited cytotoxicity” in each case. In series [1], the “fold increase in IFN-β release” value was found to be 0.05 fold.
`CC(C)NC[C@@H](C(=O)N1CCN(c2ncnc3c2[C@H](C)C[C@H]3O)CC1)c1ccc(Cl)cc1` [GDC-0068]: the “STING ligand-induced phosphorylation of TBK1, IRF3, and p65” value in series [4], in series [5] and in series [6] was “diminished” in each case. The “3′3′-cGAMP- or c-di-AMP-induced phosphorylation of ALK, EGFR, and AKT” value is listed as “only blocked the phosphorylation of AKT, but not ALK or EGFR” in series [4]; “only blocked the phosphorylation of AKT, but not ALK or EGFR” in series [5]; “only blocked the phosphorylation of AKT, but not ALK or EGFR” in [6]. Moreover, the “fold increase in IFN-β release” value in [1] was found to be 0.86 fold.
Regarding `O=C(/C=C\n1cnc(-c2cc(C(F)(F)F)cc(C(F)(F)F)c2)n1)NNc1cnccn1` [KPT-330], the “3′3′-cGAMP-induced IFNβ release” value is reported as “confirmed their inhibitory properties” in series [2], “confirmed their inhibitory properties” in series [3] and “blocked” in [1]. For the same molecule, the “fold increase in IFN-β release” value in series [1] was 0.05 fold.
For `C[C@@H]1CN(CC(=O)Nc2ccc3c(c2)Cc2cccc(-c4cc(=O)cc(N5CCOCC5)o4)c2S3)C[C@H](C)O1` [KU-60019], the results for the “3′3′-cGAMP-induced IFNβ release” value in series [2], in series [3] and in series [1] were “confirmed their inhibitory properties”, “confirmed their inhibitory properties” and “blocked”, respectively. In addition, the “fold increase in IFN-β release” value in series [1] is 0.06 fold.
On to `C#Cc1cccc(Nc2ncnc3cc(OCCOC)c(OCCO)cc23)c1` [OSI-420], for which the “interaction between ALK and EGFR” value in series [7] and in series [8] was “reduced” in each case. The “STING ligand-induced phosphorylation of TBK1, IRF3, and p65” value in series [4], in series [5] and in series [6] was “diminished” each time. Further, the “3′3′-cGAMP- or c-di-AMP-induced phosphorylation of ALK, EGFR, and AKT” value in series [4], in series [5] and in series [6] was “attenuated” in each case. Also, the “fold increase in IFN-β release” value in series [1] was 0.14 fold.
Regarding `Cl.NC(=O)c1cnc(N[C@@H]2CCCC[C@@H]2N)nc1Nc1cccc(-n2nccn2)c1` [PRT062607 (P505-15, BIIB057) HCl], the “3′3′-cGAMP-induced IFNβ release” value is given as “confirmed their inhibitory properties” in [2], “confirmed their inhibitory properties” in series [3] and “blocked” in series [1]. Besides, the “fold increase in IFN-β release” value in series [1] was 0.07 fold.

The record behind these values is patent US11179412B2, “Methods of treating conditions involving elevated inflammatory response” (University of Pittsburgh—Of the Commonwealth System of …, priority 2017, dated 2021).
